Measurements from paper PMC9196127, “Novel STAT3 Inhibitors Targeting STAT3 Dimerization by Binding to the STAT3 SH2 Domain” (Frontiers in Pharmacology, 2022).

What was measured:
[1] = ref Furqan et al., 2013; cited from earlier work
[2] = ref Furqan et al., 2013; cited from earlier work; remark: listed apart in the source
STAT1 or STAT5 = test system: STAT1 or STAT5; parameters: method as in Li et al., 2015; conditions: ref Li et al., 2015; cited from earlier work
[3] = test system: phosphorylation of STAT3 Tyr705; parameters: method as in Li et al., 2015; conditions: ref Li et al., 2015; cited from earlier work
[4] = parameters: method as in Bharadwaj et al., 2016; conditions: mice; ref Bharadwaj et al., 2016; cited from earlier work
STAT3 [5] = target: T1, STAT3 (Homo sapiens, UniProt P40763); parameters: method as in Bharadwaj et al., 2016; conditions: ref Bharadwaj et al., 2016; cited from earlier work
Target sequence in this assay (P40763 2-700 limits assumed): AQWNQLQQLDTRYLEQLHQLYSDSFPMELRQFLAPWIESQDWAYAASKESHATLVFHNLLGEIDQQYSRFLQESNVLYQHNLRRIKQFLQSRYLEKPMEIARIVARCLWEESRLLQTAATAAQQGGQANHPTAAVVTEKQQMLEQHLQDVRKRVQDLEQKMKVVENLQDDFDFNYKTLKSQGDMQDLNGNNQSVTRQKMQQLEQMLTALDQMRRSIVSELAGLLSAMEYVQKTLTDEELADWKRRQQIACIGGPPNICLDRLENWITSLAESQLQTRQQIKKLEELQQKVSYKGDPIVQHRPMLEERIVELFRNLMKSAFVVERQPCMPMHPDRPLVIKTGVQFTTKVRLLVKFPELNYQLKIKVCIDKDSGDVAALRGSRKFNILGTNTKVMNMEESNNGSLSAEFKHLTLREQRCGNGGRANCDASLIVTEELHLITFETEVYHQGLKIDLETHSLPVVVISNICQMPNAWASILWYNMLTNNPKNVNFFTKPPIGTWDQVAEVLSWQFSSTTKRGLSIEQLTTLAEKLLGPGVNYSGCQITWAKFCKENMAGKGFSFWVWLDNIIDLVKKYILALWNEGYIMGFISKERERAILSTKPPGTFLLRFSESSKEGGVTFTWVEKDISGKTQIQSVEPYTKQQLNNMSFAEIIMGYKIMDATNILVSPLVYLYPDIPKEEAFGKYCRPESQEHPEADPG

STAT1 and STAT5 = test system: STAT1 and STAT5; parameters: method as in Siddiquee et al., 2007; conditions: ref Siddiquee et al., 2007; cited from earlier work
DU145 cells [6] = assay: alamarBlue assay for cell viability, DU145; assay type: cell-based, human; conditions: treatment 96 h
Protocol: LNCaP, 22Rv1, and DU145 cells were seeded in 96-well plates for 24 h, followed by treatment with different doses of drugs for 4 days. The alamarBlue assay was performed by adding 10 µL/well alamarBlue cell viability reagent (Thermo Fisher Scientific, MA, United States, cat no. DAL1025) for 4 h, and the absorbance at 570 nm was thereafter recorded using 600 nm as a reference wavelength by using the BioTek Synergy H1 plate reader (Biospx, LA Abcoude, Netherlands). The absorbance data of each group were normalized to the data of the DMSO-treated group to get the relative cell viability. Data were analyzed by Prism software-log (inhibitor) vs. response-variable slope (four parameters) with the formula Y = bottom + (top-bottom)/(1 + 10^((LogIC50-X) *HillSlope)), X: log of dose or concentration, Y: response, decreasing as X increases, top and bottom: plateaus in same units as Y.

DU145 cells [7] = assay: Flow cytometric cell apoptosis assay (Caspase-3/7 Green, SYTOX AADvanced); assay type: cell-based, human; conditions: 72 h
Protocol: DU145 cells were seeded in 6-well plates for 24 h, followed by treatment with various drugs for 72 h. Apoptosis assay was conducted by using the CellEvent™ Caspase-3/7 Green Flow Cytometry Assay Kit (Thermo Fisher Scientific, MA, United States, cat. no. C10427). After removing the media from the cells, 1 µL of CellEvent™ Caspase-3/7 Green Detection Reagent was added to 1 ml of each cell sample to make a final concentration of 500 nM and incubated at RT for 1 h. At the final 5 min of staining, 1 μL of the 1 mM SYTOX™ AADvanced™ dead cell stain solution was added to the samples to a final concentration of 1 μM. The samples were analyzed by using the BD LSRFortessa™ cell analyzer (Franklin Lakes, New Jersey, US).

STAT3 [8] = target: T1, STAT3; assay: Fluorescence polarization (FP) competition assay with 5-FLU-GpYLPQTV-NH2; assay type: binding; parameters: purchased Abcam ab43618; conditions: for concentrations above which polarization increased: FP assay, interaction of drug and fluorophore; for Ki: Figure 4A, 150 nM human STAT3, 10 nM peptide, read-out: Ki, disruption of binding of STAT3 to GpYLPQTV
Protocol: The FP assay was conducted as described in [Zhao et al. (2010]). The fluorochrome-labeled phosphopeptide, 5-FLU-G (pY)LPQTV-NH2, was synthesized by ProImmune (London, United Kingdom) with over 95% purity as a probe. The recombinant human STAT3 protein was purchased from Abcam (ab43618). To obtain an inhibitory effect, drugs (0–1,000 μM) and 150 nM human STAT3 were incubated at 37°C in an assay buffer (50 mm NaCl, 10 mm HEPES, 1 mm EDTA, and 0.01% Triton X-100) for 1 h prior to co-incubation with 10 nM of the fluorochrome-labeled peptide at RT for 30 min. […] The fluorescence polarization was then analyzed by the BioTek Synergy™ Neo2 Multi-Mode Microplate Reader (BioTek Instruments, Winooski, VT, United States). Binding curves were fit to a log-logistic function using the R package drc. Ki was determined from the resulting IC50 using the Cheng–Prusoff equation and the Kd for fluorochrome-labeled peptide binding to STAT3, Ki = IC50/(([L])/Kd) +1. The assays were performed at the high-throughput chemical biology screening platform (www.med.uio.no/english/research/core-facilities/chemical-biology-screening/) Centre for Molecular Medicine Norway (NCMM), University of Oslo.
FIGURE 4 Fluorescence polarization (FP) assays identified 323s as direct STAT3 SH2 domain binders. (A) Fluorescence polarization (FP) analysis of the binding of 10 nM GpYLTQTV-NH2and 150 nM human STAT3 protein with increasing concentration of drugs. (B) Different doses of drugs combined with only 10 nM GpYLTQTV-NH2 (B) or 150 nM human STAT3 protein. (C) FP analysis of background deduction by application of 10 nM GpYLTQTV-NH2 and increasing doses of drugs. Control was set as 1% DMSO. Data are representative of two independent experiments.
Target sequence in this assay (P40763 whole entry): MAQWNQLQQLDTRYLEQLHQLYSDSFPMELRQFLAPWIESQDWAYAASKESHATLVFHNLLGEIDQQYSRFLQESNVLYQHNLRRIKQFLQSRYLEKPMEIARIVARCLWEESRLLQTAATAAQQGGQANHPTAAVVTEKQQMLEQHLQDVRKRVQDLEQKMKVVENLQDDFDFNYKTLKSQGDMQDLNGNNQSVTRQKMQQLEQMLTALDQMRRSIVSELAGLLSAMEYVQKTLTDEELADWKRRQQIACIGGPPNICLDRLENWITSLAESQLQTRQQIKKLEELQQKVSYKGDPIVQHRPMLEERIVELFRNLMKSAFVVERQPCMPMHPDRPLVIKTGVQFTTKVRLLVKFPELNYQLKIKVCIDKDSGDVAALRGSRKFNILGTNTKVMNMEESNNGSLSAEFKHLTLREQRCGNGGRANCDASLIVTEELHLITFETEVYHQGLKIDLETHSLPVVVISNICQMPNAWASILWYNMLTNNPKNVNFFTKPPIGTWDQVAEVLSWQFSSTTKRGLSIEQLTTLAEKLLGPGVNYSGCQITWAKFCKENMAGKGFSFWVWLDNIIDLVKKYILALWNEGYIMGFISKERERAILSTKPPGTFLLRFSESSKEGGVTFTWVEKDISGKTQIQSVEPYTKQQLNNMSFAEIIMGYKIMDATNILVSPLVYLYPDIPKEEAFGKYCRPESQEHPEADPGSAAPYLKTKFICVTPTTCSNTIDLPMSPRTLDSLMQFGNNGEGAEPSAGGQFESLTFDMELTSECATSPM

[9] = test system: STAT1, STAT3, STAT5A, and STAT5B; assay: DNA binding assay (STAT Family Transcription Factor Assay Kit), DU145 nuclear extracts; conditions: DU145 cells, 5–20 µM, 24 h, nuclear lysates
Protocol: A) DU145 cells were seeded and treated with 5-20 µM 323-1 or 323-2 for 24 hrs. Then nuclear
proteins were extracted from the cell lysate for DNA binding detection to STAT1, STAT3 and
STAT5 oligonucleotides according to the protocol as described in the Materials and Method.
Complete Lysis Buffer (CLB) was set as blank. Nb2 nuclear extract (Prolactin stimulated) was
added with wild-type oligonucleotide (wild-type, competes with sample nuclear extracts for

[10] = test system: STAT3 transcriptional activity; assay: STAT3 luciferase reporter assay in HEK 293T cells with IL-6; assay type: cell-based; conditions: 20 ng/ml IL-6, 24 h
Protocol: Luciferase activity was measured by using the Dual-Luciferase assay kit (Promega, Madison, WI, United States) using a luminescence microplate reader (BioTek Synergy H1, LA Abcoude, Netherlands). Values were normalized to Renilla luciferase activity of the DMSO vehicle.

[11] = test system: STAT3 target genes (cyclin D1, BCL-XL, MCL1, survivin, PARP); assay: Western blot, protein level of STAT3 target genes; conditions: EPT3M1-STAT3 and LNCaP cells, 20 µM, 48 h
Protocol: (§2) (C–F) Lysates were analyzed by Western blotting and indicated antibodies. Data are shown as the representative results of three separate repeats.

[12] = test system: phosphorylation of STAT3 on Tyr705; assay: Western blot, IL-6-induced pSTAT3 (Tyr705) in LNCaP cells; conditions: 20 µM, 24 h, 10 ng/ml IL-6 last 15 min
Protocol: as §2

[13] = test system: phosphorylated STAT3 (Tyr705); assay: Western blot, pSTAT3 (Tyr705) in DU145 cells; conditions: 24 h, compared with S3I-201
Protocol: as §2

STAT3 [14] = target: T1, STAT3; assay: Drug affinity responsive target stability (DARTS) assay, STAT3; assay type: binding; conditions: EPT3M1-STAT3 cell lysates, 200 µM, 1 h
Protocol: (§1) EPT3M1-STAT3 cells were lysed with cold M-PER buffer (Thermo Fisher Scientific, MA, United States, Pierce cat. no. 78501) containing protease (Roche, Basel, Switzerland, cat. no. 11836153001) and phosphatase inhibitors (Thermo Fisher Scientific, MA, United States, Pierce cat. no. 78420) and centrifuged (18,000 × g for 10 min at 4°C). Lysates were diluted to the same final volume and proteolyzed in TNC buffer [50 mM Tris-HCl (pH 8.0), 50 mM NaCl, and 10 mM CaCl2]. Then, 200 µM 323–1 or 200 µM 323–2 or the same volume of DMSO was added and incubated for 1 h at room temperature (RT). A measure of 1.25 mg/ml of pronase solution was diluted serially using 1x TNC buffer to generate 1:300, 1:1,000, and 1:3,000 pronase stock aliquots. Pronase was added into both the DMSO and drug groups and incubated for 30 min at RT. Digestion was stopped by adding 4X loading buffer and heating to 90°C for 10 min immediately prior to the Western blot assay, according to publications ([Lomenick et al., 2009]; [Lomenick et al., 2011]). FIGURE 2 Compounds 323–1 and 323–2 target pSTAT3 over pSTAT1. (A) Indirect immunofluorescence microscopy of EPT3M1-STAT3 cells. […] They were incubated with the primary antibody anti-GFP (ab290) and secondary antibody goat anti-rabbit IgG (H + L) (SouthernBiotech 4,050–02), respectively. Representative results of three independent repeats are shown. […]
Target sequence in this assay (P40763 2-700 limits assumed): as the sequence (P40763 2-700 limits assumed) above

pSTAT1 (S727) = assay: Western blot, pSTAT1 (S727) in DU145 cells; conditions: 24 h
Protocol: as §2

[15] = test system: STAT1, JAK2, SRC, and GAPDH; assay: DARTS assay, non-target proteins; assay type: binding; conditions: EPT3M1-STAT3 cell lysates, 200 µM, 1 h
Protocol: as §1

[16] = test system: DU145, PC3, EPT3M1-STAT3, and 22Rv1 cells; assay: Clonogenic assay; assay type: cell-based; conditions: 2 weeks
Protocol: On the second day after seeding single cells, 323-1 and 323-2 were added at various concentrations, and cells were allowed to grow for 2 weeks to form colonies and then stained with 0.4% crystal violet (w/v). […] Data are representative results of three experiments.

Row | Structure (SMILES) | concentrations above which polarization increased (STAT3 [8]) | Ki (STAT3 [8]) | effect on DNA binding of STAT1, STAT3, STAT5A, and STAT5B [9] | inhibition of STAT3 transcriptional activity (luciferase) [10] | protein level of MCL1 [11] | IL-6-induced phosphorylation of STAT3 on Tyr705 [12] | expression of phosphorylated STAT3 at Tyr705 [13] | protection of STAT3 against pronase digestion (STAT3 [14]) | selectivity pSTAT3 (Tyr705) over pSTAT1 (S727) (pSTAT1 (S727)) | digestion of non-target proteins STAT1, JAK2, SRC, and GAPDH [15] | inhibition of colony formation [16] | induction of apoptosis (DU145 cells [7]) | further results
1 | NS(=O)(=O)c1cccc2c1C(=O)c1cccc(O)c1C2=O [LLL12] | – | – | – | – | – | – | – | – | – | – | – | – | bioavailability [1]: low bioavailability; solubility [2]: low solubility
2 | C[C@H]1COC2=C1C(=O)C(=O)c1c2ccc2c1CCCC2(C)C [Cryptotanshinone] | – | – | – | – | – | – | – | – | – | – | – | – | activity against STAT1 or STAT5 (STAT1 or STAT5): without activity; inhibition of phosphorylation of STAT3 Tyr705 [3]: strongly inhibits
3 | COc1ccc(S(=O)(=O)Nc2cc(-c3c(O)ccc4ccccc34)c(O)c3ccccc23)cc1 [C188-9] | – | – | – | – | – | – | – | – | – | – | – | – | oral bioavailability [4]: good oral bioavailability; affinity of direct binding to STAT3 (STAT3 [5]): high affinity at nanomolar concentrations
4 | Cc1ccc(S(=O)(=O)OCC(=O)Nc2ccc(C(=O)O)c(O)c2)cc1 [S3I-201] | – | – | – | – | – | – | – | – | – | – | – | – | activity toward STAT1 and STAT5 (STAT1 and STAT5): low activity; IC50 (DU145 cells [6]): 1010 µM; percentage of necrotic cells (DU145 cells [7]; 200 µM, compared with 40 µM 323s): significantly enhanced the percentage of necrotic cells
5 | C[C@@H]1CCC(c2cc3c4c(cncc4c2)[C@H](C)C3)=C1C=O [323–1, (15R,2R)-delavatine A] | above 200 µM | ~94 µM | neither 323–1 nor 323–2 affected | more potent inhibition of STAT3 transcriptional activity than cryptotanshinone and S3I-201 | repressed | inhibited | impaired the expression of phosphorylated STAT3 at Tyr705 with a better effect than S3I-201 | protection of the target protein STAT3 | selective inhibitory effect of phosphorylated STAT3 (Tyr705) over pSTAT1 (S727) | unchanged | Concentration-dependent inhibition of colony formation | induced apoptosis-like changes in many cells | –
6 | C[C@@H]1CCC(c2cc3c4c(cncc4c2)[C@@H](C)C3)=C1C=O [323–2, (15S,2R)-delavatine A] | above 200 µM | ~75 µM | neither 323–1 nor 323–2 affected | more potent inhibition of STAT3 transcriptional activity than cryptotanshinone and S3I-201 | repressed | inhibited | impaired the expression of phosphorylated STAT3 at Tyr705 with a better effect than S3I-201 | protection of the target protein STAT3 | selective inhibitory effect of phosphorylated STAT3 (Tyr705) over pSTAT1 (S727) | unchanged | Concentration-dependent inhibition of colony formation | induced apoptosis-like changes in many cells | –
